We go through 30 molecules from patent US20120142667A1, “PYRIMIDINE DERIVATIVES AS ZAP-70 INHIBITORS” (priority 2009, published 2012).

pIC50: −log10 of the molar value. Structures can show the parent of a compound that is named as a salt.

This test addresses T1, ZAP-70 (Homo sapiens, UniProt P43403).
T1 construct: endogenous in cells; host or cells: cell lysate
T1 sequence (P43403 1-619): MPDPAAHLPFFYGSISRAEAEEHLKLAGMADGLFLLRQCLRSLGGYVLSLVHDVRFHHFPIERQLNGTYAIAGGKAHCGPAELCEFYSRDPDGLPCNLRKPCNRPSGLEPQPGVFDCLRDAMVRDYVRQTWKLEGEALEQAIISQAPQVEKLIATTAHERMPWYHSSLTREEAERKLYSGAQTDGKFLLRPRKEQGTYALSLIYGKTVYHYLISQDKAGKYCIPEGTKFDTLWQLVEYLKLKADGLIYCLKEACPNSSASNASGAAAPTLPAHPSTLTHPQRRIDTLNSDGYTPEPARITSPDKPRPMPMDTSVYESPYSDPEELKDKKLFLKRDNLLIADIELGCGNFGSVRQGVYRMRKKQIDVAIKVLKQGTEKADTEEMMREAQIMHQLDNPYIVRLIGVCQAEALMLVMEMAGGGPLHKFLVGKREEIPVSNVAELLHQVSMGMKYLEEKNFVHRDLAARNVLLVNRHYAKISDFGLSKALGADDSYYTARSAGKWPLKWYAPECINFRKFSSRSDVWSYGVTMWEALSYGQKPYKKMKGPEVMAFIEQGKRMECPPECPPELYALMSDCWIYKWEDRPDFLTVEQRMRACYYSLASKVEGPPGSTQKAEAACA
Kind of test: ZAP-70 kinobeads assay. The class given is binding. To be noted: cell lysate. The protocol: The compounds of the present invention as described in the previous examples can be tested in the ZAP-70 kinobeads assay as described (EP-A 1862802 and WO-A 2007/137867). Briefly, test compounds (at various concentrations) and the affinity matrix with the immobilized aminopyrido-pyrimidine ligand 24 are added to cell lysate aliquots and allowed to bind to the proteins in the lysate sample. After the incubation time the beads with captured proteins are separated from the lysate. Bound proteins are then eluted and the presence ZAP-70 is detected and quantified using a specific antibody in a dot blot procedure and the Odyssey infrared detection system.
In general, pIC50 refers to the IC50 on a negative log10 scale, so that one unit is a factor of ten. Low values mean a high IC50, high ones a low IC50. Turning to `COc1ccc(Nc2nc(Nc3cc(OCC(C)(C)O)ccc3OC)ncc2Cl)c(NS(C)(=O)=O)c1` [Example 104, N-(2-((5-chloro-2-((5-(2-hydroxy-2-methylpropoxy)-2-methoxyphenyl)amino)pyrimidin-4-yl)amino)-5-methoxyphenyl)methanesulfonamide], the negative-log IC50 (pIC50) is 5.00 to 6.00.
Under `COc1ccc(Nc2nc(Nc3ccc(F)cc3C)ncc2Cl)c(NS(C)(=O)=O)c1` [Example 45, N-(2-(5-chloro-2-(4-fluoro-2-methylphenylamino)pyrimidin-4-ylamino)-5-methoxyphenyl)methanesulfonamide] stands 6.00 to 7.00; under `COc1ccc(Nc2ncc(Br)c(Nc3ccccc3NS(C)(=O)=O)n2)c(OC)c1` [Example 26, N-(2-(5-bromo-2-(2,4-dimethoxyphenylamino)pyrimidin-4-ylamino)phenyl)methanesulfonamide], 6.00 to 7.00; under `COc1ccccc1Nc1ncc(Br)c(Nc2ccccc2NS(C)(=O)=O)n1` [Example 21, N-(2-(5-bromo-2-(2-methoxyphenylamino)pyrimidin-4-ylamino)phenyl)methanesulfonamide hydrochloride], 6.00 to 7.00.
Next, `COc1ccc(Nc2nc(Nc3cc(F)ccc3OC)ncc2Cl)c(NS(C)(=O)=O)c1` [Example 42, N-(2-(5-chloro-2-(5-fluoro-2-methoxyphenylamino)pyrimidin-4-ylamino)-5-methoxyphenyl)methanesulfonamide]: 6.00 to 7.00; `COc1ccc(Nc2nc(Nc3cccc(C)c3C)ncc2Cl)c(NS(C)(=O)=O)c1` [Example 52, N-(2-(5-chloro-2-(2,3-dimethylphenylamino)pyrimidin-4-ylamino)-5-methoxyphenyl)methanesulfonamide]: 6.00 to 7.00.
As to `COc1ccc(OCCO)cc1Nc1ncc(F)c(Nc2cccc(C)c2NS(C)(=O)=O)n1` [Example 103, N-(2-(5-fluoro-2-(5-(2-hydroxyethoxy)-2-methoxyphenylamino)pyrimidin-4-ylamino)-6-methylphenyl)methanesulfonamide], the pIC50 is 5.00 to 6.00.
Next, `COc1ccc(Nc2nc(Nc3cncc(OC)c3OC)ncc2Cl)c(NS(C)(=O)=O)c1` [Example 81, N-(2-(5-chloro-2-(4,5-dimethoxypyridin-3-ylamino)pyrimidin-4-ylamino)-5-methoxyphenyl)methanesulfonamide]: 5.00 to 6.00; `CS(=O)(=O)Nc1ccccc1Nc1nc(Nc2ccccc2O)ncc1Br` [Example 20, N-(2-(5-bromo-2-(2-hydroxyphenylamino)pyrimidin-4-ylamino)phenyl)methanesulfonamide hydrochloride]: 6.00 to 7.00.
Next, `COc1ccc(Nc2nc(Nc3c[nH]c(=O)cc3C)ncc2Cl)c(NS(C)(=O)=O)c1` [Example 82, N-(2-(5-chloro-2-(4-methyl-6-oxo-1,6-dihydropyridin-3-ylamino)pyrimidin-4-ylamino)-5-methoxyphenyl)methanesulfonamide]: 6.00 to 7.00; `COc1ccc(Nc2nc(Nc3ccc(OCC(N)=O)cc3C)ncc2Cl)c(NS(C)(=O)=O)c1` [Example 90, 2-(4-((5-chloro-4-((4-methoxy-2-(methylsulfonamido)phenyl)amino)pyrimidin-2-yl)amino)-3-methylphenoxy)acetamide]: not below 7.00.
Next, `CS(=O)(=O)Nc1ccccc1Nc1nc(Nc2ccccc2F)ncc1F` [Example 1, N-(2-(5-fluoro-2-(2-fluorophenylamino)pyrimidin-4-ylamino)phenyl)methanesulfonamide]: 5.00 to 6.00; `COc1ccc(Nc2nc(Nc3cc(OCCN)ccc3F)ncc2Cl)c(NS(C)(=O)=O)c1` [Example 66, N-(2 (2 (5 (2 aminoethoxy)-2-fluorophenylamino)-5-chloropyrimidin-4-ylamino)-5-methoxyphenyl)methanesulfonamide]: 6.00 to 7.00.
`COc1ccc(Nc2nc(Nc3cccc(F)c3OC)ncc2Cl)c(NS(C)(=O)=O)c1` [Example 61, N-(2-(5-chloro-2-(3-fluoro-2-methoxyphenylamino)pyrimidin-4-ylamino)-5-methoxyphenyl)methanesulfonamide hydrochloride] had a negative logarithm of the IC50 (pIC50) of 5.00 to 6.00.
Under `COc1ccc(Nc2nc(Nc3cc(OC)ccc3OC)ncc2Cl)c(NS(C)(=O)=O)c1` [Example 22, N-(2-(5-chloro-2-(2,5-dimethoxyphenylamino)pyrimidin-4-ylamino)-5-methoxyphenyl)methanesulfonamide] stands 6.00 to 7.00.
With `CCc1ccccc1Nc1ncc(Br)c(Nc2ccccc2NS(C)(=O)=O)n1` [Example 19, N-(2-(5-bromo-2-(2-ethylphenylamino)pyrimidin-4-ylamino)phenyl)methanesulfonamide hydrochloride], the negative logarithm of the IC50 (pIC50) is 5.00 to 6.00.
For the molecule `COc1ccc(OCCO)cc1Nc1ncc(Cl)c(Nc2cccc(OC)c2NS(C)(=O)=O)n1` [Example 119, N-(2-(5-chloro-2-(5-(2-hydroxyethoxy)-2-methoxyphenylamino)pyrimidin-4-ylamino)-6-methoxyphenyl)methanesulfonamide], the negative-log IC50 (pIC50) is 6.00 to 7.00.
`COc1ccc(Nc2ncc(Cl)c(Nc3ccc(OC)cc3NS(C)(=O)=O)n2)c(O)c1` [Example 41, N-(2-(5-chloro-2-(2-hydroxy-4-methoxyphenylamino)pyrimidin-4-ylamino)-5-methoxyphenyl)methanesulfonamide] showed a pIC50 of 6.00 to 7.00.
With `CS(=O)(=O)Nc1ccccc1Nc1nc(Nc2ccccc2F)ncc1Br` [Example 17, N-(2-(5-bromo-2-(2-fluorophenylamino)pyrimidin-4-ylamino)phenyl)methanesulfonamide hydrochloride], the negative-log IC50 (pIC50) was 6.00 to 7.00.
For `COc1ccc(Nc2ncc(Cl)c(Nc3ccc(OC)cc3NS(C)(=O)=O)n2)c(F)c1` [Example 33, N-(2-(5-chloro-2-(2-fluoro-4-methoxyphenylamino)pyrimidin-4-ylamino)-5-methoxyphenyl)methanesulfonamide], the pIC50 is 6.00 to 7.00.
Consider `COc1ccc(Nc2nc(Nc3cc(OCCO)ccc3OC)ncc2Br)c(NS(C)(=O)=O)c1` [Example 117, N-(2-((5-bromo-2-((5-(2-hydroxyethoxy)-2-methoxyphenyl)amino)pyrimidin-4-yl)amino)-5-methoxyphenyl)methanesulfonamide], for which the pIC50 is not below 7.00.
Under `COc1ccc(Nc2nc(Nc3cc(OC)c(OC)cc3Cl)ncc2Cl)c(NS(C)(=O)=O)c1` [Example 53, N-(2-(5-chloro-2-(2-chloro-4,5-dimethoxyphenylamino)pyrimidin-4-ylamino)-5-methoxyphenyl)methanesulfonamide] stands 6.00 to 7.00; under `COc1ccc(Nc2nc(Nc3cc(OC)c(C)cc3OC)ncc2Cl)c(NS(C)(=O)=O)c1` [Example 47, N-(2-(5-chloro-2-(2,5-dimethoxy-4-methylphenylamino)pyrimidin-4-ylamino)-5-methoxyphenyl)methanesulfonamide], 6.00 to 7.00; under `COc1ccc(OC)c(Nc2ncc(F)c(Nc3ccccc3NS(C)(=O)=O)n2)c1` [Example 15, N-(2-(2-(2,5-dimethoxyphenylamino)-5-fluoropyrimidin-4-ylamino)phenyl)methanesulfonamide], 5.00 to 6.00.
Under `Cc1ccccc1Nc1ncc(Br)c(Nc2ccccc2NS(C)(=O)=O)n1` [Example 24, N-(2-(5-bromo-2-(2-methylphenylamino)pyrimidin-4-ylamino)phenyl)methanesulfonamide hydrochloride] stands 6.00 to 7.00.
Turning to `COc1ccc(OCCO)cc1Nc1ncc(Cl)c(Nc2ccccc2NS(C)(=O)=O)n1` [Example 109, N-(2-(5-chloro-2-(5-(2-hydroxyethoxy)-2-methoxyphenylamino)pyrimidin-4-ylamino)phenyl)methanesulfonamide], the negative-log IC50 (pIC50) was 6.00 to 7.00.
Take `COc1ccc(Nc2nc(Nc3cc(OC)ccc3OC)ncc2F)c(NS(C)(=O)=O)c1` [Example 27, N-(2-(2-(2,5-dimethoxyphenylamino)-5-fluoropyrimidin-4-ylamino)-5-methoxyphenyl)methanesulfonamide]: the pIC50 is 5.00 to 6.00.
In the case of `COc1ccc(Nc2nc(Nc3ccc(C)cc3OC)ncc2Cl)c(NS(C)(=O)=O)c1` [Example 62, N-(2-(5-chloro-2-(2-methoxy-4-methylphenylamino)pyrimidin-4-ylamino)-5-methoxyphenyl)methanesulfonamide hydrochloride], the pIC50 is 6.00 to 7.00.
Next, `COc1ccc(Nc2nc(Nc3cc4c(cc3OC)OCCO4)ncc2Cl)c(NS(C)(=O)=O)c1` [Example 40, N-(2-(5-chloro-2-(7-methoxy-2,3-dihydrobenzo[b][1,4]dioxin-6-ylamino)pyrimidin-4-ylamino)-5-methoxyphenyl)methanesulfonamide]: 6.00 to 7.00; `COc1ccc(Nc2nc(Nc3cnc(O)cc3OC)ncc2Cl)c(NS(C)(=O)=O)c1` [Example 78, N-(2-(5-chloro-2-(6-hydroxy-4-methoxypyridin-3-ylamino)pyrimidin-4-ylamino)-5-methoxyphenyl)methanesulfonamide]: not below 7.00.
